Laboratory results as given in patent US20090163515A1, “Compounds Which Bind to the Active Site of Protein Kinase Enzymes” (Biofocus Discovery Ltd., priority 2003, published 2009).

These compounds were tested on ROK (assay: ROK activity assay). Conditions: assays conducted at 1-100 μM.
Assay type: biochemical
Set-up: key: +: active; ++: more active; +++: very active

Row | SMILES | ROK activity
1 | NC(=O)c1cccc(-c2cncc(NCc3ccc(Cl)c(F)c3)c2)c1 [3-[5-(4-Chloro-3-fluoro-benzylamino)-pyridin-3-yl]-benzamide] | ++
2 | Oc1cccc(-c2cncc(Nc3ccc4ccccc4c3)c2)c1 [3-[5-(Naphthalen-2-ylamino)-pyridin-3-yl]-phenol] | +
3 | Oc1ccc(-c2cnc(NCc3cccc(Cl)c3)cn2)cc1 [4-[5-(3-Chloro-benzylamino)-pyrazin-2-yl]-phenol] | +
4 | Oc1cccc(CNc2cncc(-c3ccc4[nH]ccc4c3)c2)c1 [3-{[5-(1H-Indol-5-yl)-pyridin-3-ylamino]-methyl}-phenol] | +
5 | NC(=O)c1cccc(-c2cncc(NCc3ccc(O)cc3)c2)c1 [3-[5-(4-Hydroxy-benzylamino)-pyridin-3-yl]-benzamide] | ++
6 | CSc1ccc(-c2cnc(NCCc3ccncc3)cn2)cc1 [[5-(4-Methylsulfanyl-phenyl)-pyrazin-2-yl]-(2-pyridin-4-yl-ethyl)-amine] | ++
7 | COc1ccc(CNc2cncc(-c3cccc(C(N)=O)c3)c2)cc1O [3-[5-(3-Hydroxy-4-methoxy-benzylamino)-pyridin-3-yl]-benzamide] | ++
8 | c1ccc2cc(-c3cnc(NCCc4ccncc4)cn3)ccc2c1 [(5-Naphthalen-2-yl-pyrazin-2-yl)-(2-pyridin-4-yl-ethyl)-amine] | ++
9 | Oc1ccc(-c2cncc(NCc3cccc(OC(F)(F)F)c3)c2)cc1 [4-[5-(3-Trifluoromethoxy-benzylamino)-pyridin-3-yl]-phenol] | +
10 | c1ccc2ncc(-c3cnc(NCCc4ccncc4)cn3)cc2c1 [(2-Pyridin-4-yl-ethyl)-(5-quinolin-3-yl-pyrazin-2-yl)-amine] | ++
11 | CC(=O)Nc1ccc(-c2cncc(NCc3cccc(O)c3)c2)cc1 [N-{4-[5-(3-Hydroxy-benzylamino)-pyridin-3-yl]-phenyl}-acetamide] | +
12 | c1cc(-c2cncc(NCC3CCCCC3)c2)ccn1 [[3,4′]Bipyridinyl-5-yl-cyclohexylmethyl-amine] | ++
13 | COc1ccc(CNc2cncc(-c3ccc(O)cc3)c2)cc1O [5-{[5-(4-Hydroxy-phenyl)-pyridin-3-ylamino]-methyl}-2-methoxy-phenol] | ++
14 | Oc1ccc(-c2cncc(Nc3cccc(O)c3)c2)cc1 [4-[5-(3-Hydroxy-phenylamino)-pyridin-3-yl]-phenol] | ++
15 | Brc1cccc(Nc2cncc(-c3ccncc3)c2)c1 [[3,4′]Bipyridinyl-5-yl-(3-bromo-phenyl)-amine] | ++
16 | c1cc(-c2cncc(NCc3ccc4c(c3)OCO4)c2)ccn1 [Benzo[1,3]dioxol-5-ylmethyl-[3,4′]bipyridinyl-5-yl-amine] | ++
17 | Oc1ccc(-c2cnc(NCc3ccccc3)cn2)cc1 [4-(5-Benzylamino-pyrazin-2-yl)-phenol] | ++
18 | COc1ccc(CNc2cnc(-c3ccncc3)cn2)cc1 [(4-Methoxy-benzyl)-(5-pyridin-4-yl-pyrazin-2-yl)-amine] | +
19 | Oc1ccc(-c2cncc(NCc3cccc(O)c3)c2)cc1 [(5-(4′-hydroxy-phenyl)-pyridin-3-yl)-(3-hydroxy-benzyl)-amine] | +++
20 | Oc1ccc(-c2cncc(NCc3cc(O)cc(O)c3)c2)cc1 [5-{[5-(4-Hydroxy-phenyl)-pyridin-3-ylamino]-methyl}-benzene-1,3-diol] | ++
21 | Oc1cccc(CNc2cncc(-c3cccc(O)c3)c2)c1 [(5-(3′-hydroxy-phenyl)-pyridin-3-yl)-(3-hydroxy-benzyl)-amine] | +
22 | Brc1ccc(CNc2cncc(-c3ccncc3)c2)cc1 [[3,4′]Bipyridinyl-5-yl-(4-bromo-benzyl)-amine] | +++
23 | COc1ccc(Nc2cncc(-c3cccc(O)c3)c2)cc1 [3-[5-(4-Methoxy-phenylamino)-pyridin-3-yl]-phenol] | ++

Row | SMILES | ROK activity
24 | COc1ccc(CNc2cncc(-c3ccc(O)cc3)c2)cc1 [4-[5-(4-Methoxy-benzylamino)-pyridin-3-yl]-phenol] | ++
25 | NS(=O)(=O)c1ccc(CNc2cnc(-c3ccncc3)cn2)cc1 [4-[(5-Pyridin-4-yl-pyrazin-2-ylamino)-methyl]-benzenesulfonamide] | ++
26 | COc1cc(-c2cnc(NCCc3ccncc3)cn2)cc(OC)c1OC [(2-Pyridin-4-yl-ethyl)-[5-(3,4,5-trimethoxy-phenyl)-pyrazin-2-yl]-amine] | ++
27 | NC(=O)c1cccc(-c2cncc(NCc3cccc(Cl)c3)c2)c1 [3-[5-(3-Chloro-benzylamino)-pyridin-3-yl]-benzamide] | ++
28 | CC(=O)c1ccc(-c2cnc(NCCc3ccncc3)cn2)s1 [1-{5-[5-(2-Pyridin-4-yl-ethylamino)-pyrazin-2-yl]-thiophen-2-yl}-ethanone] | +
29 | Clc1ccc(CNc2cncc(-c3ccncc3)c2)cc1 [[3,4′]Bipyridinyl-5-yl-(4-chloro-benzyl)-amine] | +++
30 | c1cncc(CCNc2cnc(-c3ccc4ccccc4c3)cn2)c1 [(5-Naphthalen-2-yl-pyrazin-2-yl)-(2-pyridin-3-yl-ethyl)-amine] | +
31 | NC(=O)c1cccc(-c2cncc(NCc3cc(O)cc(O)c3)c2)c1 [3-[5-(3,5-Dihydroxy-benzylamino)-pyridin-3-yl]-benzamide] | ++
32 | Clc1ccc(CNc2cncc(-c3ccncc3)c2)cc1Cl [[3,4′]Bipyridinyl-5-yl-(3,4-dichloro-benzyl)-amine] | ++
33 | Oc1cccc(CNc2cncc(-c3cncc4ccccc34)c2)c1 [3-[(5-Isoquinolin-4-yl-pyridin-3-ylamino)-methyl]-phenol] | +
34 | Oc1cccc(CNc2cncc(-c3ccccc3)c2)c1 [3-[(5-Phenyl-pyridin-3-ylamino)-methyl]-phenol] | +
35 | CC(=O)Nc1cccc(-c2cncc(NCc3cccc(O)c3)c2)c1 [N-{3-[5-(3-Hydroxy-benzylamino)-pyridin-3-yl]-phenyl}-acetamide] | +
36 | Clc1cccc(CNc2cnc(-c3ccncc3)cn2)c1 [(3-Chloro-benzyl)-(5-pyridin-4-yl-pyrazin-2-yl)-amine] | ++
37 | Oc1ccc(-c2cncc(NCc3ccc(F)c(F)c3)c2)cc1 [4-[5-(3,4-Difluoro-benzylamino)-pyridin-3-yl]-phenol] | ++
38 | Oc1cccc(CNc2cncc(-c3cccc4ncccc34)c2)c1 [3-[(5-Quinolin-5-yl-pyridin-3-ylamino)-methyl]-phenol] | +++
39 | COc1ccc(CNc2cncc(-c3ccncc3)c2)cc1 [[3,4′]Bipyridinyl-5-yl-(4-methoxy-benzyl)-amine] | +++
40 | NC(=O)c1cccc(-c2cncc(NCc3ccc(Cl)cc3)c2)c1 [3-[5-(4-Chloro-benzylamino)-pyridin-3-yl]-benzamide] | ++
41 | NC(=O)c1cccc(-c2cncc(NCc3ccoc3)c2)c1 [3-{5-[(Furan-3-ylmethyl)-amino]-pyridin-3-yl}-benzamide] | +
42 | c1cc(CCNc2cnc(-c3ccc4c(c3)OCO4)cn2)ccn1 [(5-Benzo[1,3]dioxol-5-yl-pyrazin-2-yl)-(2-pyridin-4-yl-ethyl)-amine] | ++
43 | OCc1cccc(-c2cncc(NCc3cccc(O)c3)c2)c1 [3-{[5-(3-Hydroxymethyl-phenyl)-pyridin-3-ylamino]-methyl}-phenol] | +
44 | Fc1ccc(CNc2cncc(-c3ccncc3)c2)cc1F [[3,4′]Bipyridinyl-5-yl-(3,4-difluoro-benzyl)-amine] | ++
45 | COc1ccc(NC(=O)c2ccc(-c3cnc(NCCc4ccncc4)cn3)cc2)cc1 [N-(4-Methoxy-phenyl)-4-[5-(2-pyridin-4-yl-ethylamino)-pyrazin-2-yl]-benzamide] | ++
46 | NC(=O)c1cccc(-c2cncc(Nc3cccc(O)c3)c2)c1 [3-[5-(3-Hydroxy-phenylamino)-pyridin-3-yl]-benzamide] | ++
